Data taken from patent US6214881A, “IL-8 receptor antagonists” (SmithKline Beecham Corporation, priority 1999, dated 2001).

Test system: recombinant human IL-8 type a and b receptors
Assay: Receptor binding assays ([125I] IL-8 / 125I Gro-a, CHO membranes)
Conditions: 125I IL-8 (0.25 nM) or 125I Gro-a; IL-8Ra or IL-8Rb membranes from Chinese hamster ovary cells; receptor subtype not specified for the result
Description: The IL-8, and Gro-a chemokine inhibitiory effects of compounds of the present invention were determined by the following in vitro assay:
[^125 I] IL-8 (human recombinant) is obtained from Amersham Corp., Arlington Heights, Ill., with specific activity 2000 Ci/mmol. Gro-a is obtained from NEN-New England Nuclear. All other chemicals are of analytical grade. High levels of recombinant human IL-8 type a and b receptors are individually expressed in Chinese hamster ovary cells as described previously (Holmes, et al., Science, 1991, 253, 1278). The Chinese hamster ovary membranes are homogenized according to a previously described protocol (Haour. et al., J Biol Chem., 249 pp 2195-2205 (1974)). Except that the homogenization buffer is changed to 10 mM Tris-HCL, 1 mM MgSO4, 0.5 mM EDTA (ethylene-diaminetetra-acetic acid), 1 mMPMSF (a-toluenesulphonyl fluoride), 0.5 mg/L Leupeptin, pH 7.5. Membrane protein concentration is determined using Pierce Co. micro-assay kit using bovine serum albumin as a standard. All assays are performed in a 96-well micro plate format. Each reaction mixture contains ^125 I IL-8 (0.25 nM) or ^125 I Gro-a and 0.5 μg/mL of IL-8Ra or 1.0 μg/mL of IL-8Rb membranes in 20 mM Bis-Trispropane and 0.4 mM Tris HCl buffers, pH 8.0, containing 1.2 mM MgSO4, 0.1 mM EDTA, mM NaCl and 0.03% CHAPS. […] The filter is then dried and counted on the Betaplate liquid scintillation counter. […]

- activity in receptor binding assay (inhibition of IL-8 / Gro-a binding): active
Compound: Cc1ccc(S(=O)(=O)NC(=O)c2cccc(NC(=O)Nc3ccccc3Br)c2)cc1 [Example 1, N-[3-(4-methylphenylsulfonyl)carboxamido]-N'-(2-bromophenyl)urea]
